US4839366A, “Methylthioquinolyl guanidine derivative, process of preparation thereof and pharmaceutical compositions therefrom” (Chiesi Farmaceutici S.p.A., priority 1983, dated 1989)
Like-named read-outs stand apart in the source and are kept apart here.

Columns and labels:
[1] = Acute toxicity, single oral administration; details: mouse, in vivo, read-out: LD50 approx
Procedure: The toxicity for single administration has been determined by the oral route in IVa:NMRI (SPF) fasted male mice, with water ad libitum, 18 hours before the experiment.

[2] = Determination of the therapeutical index (UD50/ED40); format: in vivo, rat; details: gastric ulcers UD50 / paw edema ED40
Procedure: From the UD50 /ED40 ratio (antiinflammatory activity values obtained from the regression lines for dose--AUC) the therapeutic index were calculated (Table 5).

[3] = tested on: gastric ulcers in the rat; assay: Acute effect on gastrointestinal tract: gastric ulcers in the rat; format: in vivo; details: for Potency ratio relative to timegadine: gastric ulcers, UD50; for Gastric ulcers (X ± SE), No. / Gastric ulcers (X ± SE), mm / Rats with gastric ulcers: oral; for Gastric ulcers (X ± SE), No.: number of ulcerated spots; for Gastric ulcers (X ± SE), mm: sum of maximum diameters; for Rats with gastric ulcers: ulceration 2 mm and over
Procedure: (§1) Male rats weithing 250-280 g were starved for 18 h but allowed free access to water and the drugs were delivered by esophageal tube (suspension in 0.2% Tween 80 aqueous solution, 10 ml/Kg).
(§2) Control animals received the vehicle only (10 ml/Kg).
(§3) Five hours after drug administration the rats were killed.
(§4) The stomach was slit along the lesser curvature, washed under running water and examined for haemorrhagic lesions in the glandular part of the mucosa: these lesions will be conventionally defined as `ulcers`.
(§5) The following were recorded:
(§6) (a) the sum of the maximum diameters of all the ulcerated spots;
(§7) (b) the number of ulcerated spots.
(§8) The UD50 was calculated by the method of LITCHFIELD and WILCOXON (Litchfield J. T., Wilcoxon F. J. Pharm. Exp. Ther. 96, 99-113, 1949), all animals with gastric lesion whose sum (a) was 2 mm or more being rated as `ulcerated`.

[4] = as above; format: in vivo; details: rat, in vivo, po
Procedure: as §1, §2, §3, §4, §5, §6, §7, §8

[5] = tested on: Carrageenin-induced paw edema in the rat; assay: Carrageenin paw edema in the rat; format: in vivo; details: for % inhibition vs controls, AUC (paw edema): AUC of paw volume against time
Procedure: Paw edema was induced in male rats fasted for 18 h but with free access to water, by the method of WINTER et al. (Winter C. A. et al. Proc. Soc. Exp. Biol. Med. 111, 544, 1962) injecting 0.1 ml carrageenin 1% in physiological saline into the right hind paw aponeurosis.
60 min before induction of edema the drugs suspended in 0.2% Tween
80 aqueous solution were dosed by gastric tube (20 ml/Kg); the controls received the vehicle only.
The volume of the right paw was measured by plethysmography immediately before (time 0) and 1, 2, 3, 4, 6 h after subplantar injection of the irritant.
The area under the curve expressing the paw volume plotted against time (AUC) was calculated for each animal.
The results, expressed as percent inhibition of edema development in treated animals as compared to the controls and as ED40 values obtained from the regression lines for dose-AUC, are reported in Table 2.

[6] = tested on: phenylquinone writhings in the mouse; assay: Phenylquinone writhings in the mouse; format: in vivo; details: for ED50: Mus musculus, from dose-response curves; for ED50 / % inhibition vs controls (writhings) / No. of writhings (X ± SE): oral
Procedure: The method used was that of SIEGMUND et al. (Siegmund et al. J. Pharmacol. Exp. Ther. 119, 184, 1957) modified (Arzneim. Forsch. 31(1), 87, 1981).
Male mice, 19-22 g, fasted for 18 h with free access to water, received the test drugs suspended in 0.2% Tween 80 aqueous solution (10 ml/Kg) by esophageal tube, the controls receiving the vehicle only.
One hour later all the animals were given an intraperitoneal injection of 0.02% phenylquinone solution in 5% aqueous ethanol (10 ml/Kg).
A `blind` observer recorded the number of writhings in each animal from the 5th to the 15th min after phenylquinone administration.

[7] = Rattus norvegicus, oral, from regression lines for dose-AUC (Table 2), read-out: ED40
[8] = restated in Table 5, from regression lines for dose-AUC

In the case of `CSc1cc(NC(=Nc2nccs2)NC2CCCCC2)c2ccccc2n1` [Compound I, N-cyclohexyl-N"-4-(2-methylthioquinolyl)-N'-2-thiazolyl-guanidine], the LD50 ([1]; po) is reported as over 1000 mg/kg, the “T.I. (UD50/ED40)” value [2] is reported as 7.99 and the “Potency ratio relative to timegadine” value [3] is reported as 0.47. For the same compound, the “gastric irritant potential compared with timegadine” value ([3]; in words) was “lesser gastric irritant potential”, the “Gastric ulcers (X ± SE), No.” value ([3]; 115 μmol/Kg) was 0.5 ± 0.3 and the “Gastric ulcers (X ± SE), mm” value ([3]; 115 μmol/Kg) was 0.5 ± 0.3 mm. For the same compound, the “Rats with gastric ulcers” value ([3]; 115 μmol/Kg) was 1/10, the “Gastric ulcers (X ± SE), No.” value ([3]; 230 μmol/Kg) was 0.6 ± 0.3 and the “Gastric ulcers (X ± SE), mm” value ([3]; 230 μmol/Kg) was 1.2 ± 0.8 mm. For the same compound, the “Rats with gastric ulcers” value ([3]; 230 μmol/Kg) was 1/10, the “Gastric ulcers (X ± SE), No.” value ([3]; 461 μmol/Kg) was 2.1 ± 1.0 and the “Gastric ulcers (X ± SE), mm” value ([3]; 461 μmol/Kg) was 3.8 ± 1.8 mm. For the same compound, the “Rats with gastric ulcers” value ([3]; 461 μmol/Kg) was 4/10, the “Gastric ulcers (X ± SE), No.” value ([3]; 922 μmol/Kg) was 4.8 ± 1.5 and the “Gastric ulcers (X ± SE), mm” value ([3]; 922 μmol/Kg) was 8.7 ± 3.5 mm. The “Rats with gastric ulcers” value ([3]; 922 μmol/Kg) was 5/10, the TD50 at 5 h [4] was 887 µmol/kg and the ED40 [5, 7] was 111 µmol/kg. The “Potency ratio relative to timegadine” value ([5]; carrageenin paw edema, ED40 (Table 2)) was 1.32, the “antiinflammatory activity compared with timegadine” value ([5]; in words) was “higher than those of timegadine” and the “% inhibition vs controls (paw edema), 1 h” value (“% inhibition … 1 h” for short) ([5]; oral, 30 μmol/kg) was 4%. The “% inhibition vs controls (paw edema), 2 h” value (“% inhibition … 2 h” for short) ([5]; oral, 30 μmol/kg) was 47%, the “% inhibition vs controls (paw edema), 3 h” value (“% inhibition … 3 h” for short) ([5]; oral, 30 μmol/kg) was 40% and the “% inhibition vs controls (paw edema), 4 h” value (“% inhibition … 4 h” for short) ([5]; oral, 30 μmol/kg) was 28%. The “% inhibition vs controls (paw edema), 6 h” value (“% inhibition … 6 h” for short) ([5]; oral, 30 μmol/kg) was 8%, the “% inhibition vs controls, AUC (paw edema)” value ([5]; oral, 30 μmol/kg) was 27.9% and the “% inhibition … 1 h” value ([5]; oral, 91 μmol/kg) was 13%. The “% inhibition … 2 h” value ([5]; oral, 91 μmol/kg) was 51%, the “% inhibition … 3 h” value ([5]; oral, 91 μmol/kg) was 48% and the “% inhibition … 4 h” value ([5]; oral, 91 μmol/kg) was 42%. The “% inhibition … 6 h” value ([5]; oral, 91 μmol/kg) was 17%, the “% inhibition vs controls, AUC (paw edema)” value ([5]; oral, 91 μmol/kg) was 37.3% and the “% inhibition … 1 h” value ([5]; oral, 274 μmol/kg) was 17%. For the same compound, the “% inhibition … 2 h” value ([5]; oral, 274 μmol/kg) was 53%, the “% inhibition … 3 h” value ([5]; oral, 274 μmol/kg) was 58% and the “% inhibition … 4 h” value ([5]; oral, 274 μmol/kg) was 56%. For the same compound, the “% inhibition … 6 h” value ([5]; oral, 274 μmol/kg) was 33%, the “% inhibition vs controls, AUC (paw edema)” value ([5]; oral, 274 μmol/kg) was 49.0% and the ED40 [5, 8] was 111 µmol/kg. The ED50 [6] was 18.7 µmol/kg, the “analgesic activity compared with timegadine” value ([6]; in words) was “higher than those of timegadine” and the “% inhibition vs controls (writhings)” value ([6]; 18.3 μmol/Kg) was 47.0%. The “No. of writhings (X ± SE)” value ([6]; 18.3 μmol/Kg) was 19.5 ± 4.8, the “% inhibition vs controls (writhings)” value ([6]; 55 μmol/Kg) was 79.3% and the “No. of writhings (X ± SE)” value ([6]; 55 μmol/Kg) was 7.6 ± 2.4. The “% inhibition vs controls (writhings)” value ([6]; 164 μmol/Kg) was 96.5%, the “No. of writhings (X ± SE)” value ([6]; 164 μmol/Kg) was 1.3 ± 0.5 and the “Potency ratio relative to timegadine” value ([6]; phenylquinone writhings, ED50) was 3.1.
In the case of `Cc1cc(/N=C(\Nc2nccs2)NC2CCCCC2)c2ccccc2n1` [timegadine, N-cyclohexyl-N"-4-(2-methylquinolyl)-N'-2-thiazolyl guanidine, reference compound], the LD50 ([1]; oral, single administration, male mice, interpolation on Probits paper) is reported as over 1000 mg/kg, the “T.I. (UD50/ED40)” value [2] is reported as 2.83 and the “Potency ratio relative to timegadine” value [3] is reported as 1. The “Gastric ulcers (X ± SE), No.” value ([3]; 115 μmol/Kg) was 0.3 ± 0.2, the “Gastric ulcers (X ± SE), mm” value ([3]; 115 μmol/Kg) was 0.4 ± 0.2 mm and the “Rats with gastric ulcers” value ([3]; 115 μmol/Kg) was 0/10. The “Gastric ulcers (X ± SE), No.” value ([3]; 230 μmol/Kg) was 0.8 ± 0.3, the “Gastric ulcers (X ± SE), mm” value ([3]; 230 μmol/Kg) was 1.3 ± 0.7 mm and the “Rats with gastric ulcers” value ([3]; 230 μmol/Kg) was 2/10. For the same compound, the “Gastric ulcers (X ± SE), No.” value ([3]; 461 μmol/Kg) was 4.4 ± 1.5, the “Gastric ulcers (X ± SE), mm” value ([3]; 461 μmol/Kg) was 6.7 ± 2.3 mm and the “Rats with gastric ulcers” value ([3]; 461 μmol/Kg) was 6/10. The “Gastric ulcers (X ± SE), No.” value ([3]; 922 μmol/Kg) was 9.4 ± 1.8, the “Gastric ulcers (X ± SE), mm” value ([3]; 922 μmol/Kg) was 18.5 ± 4.4 mm and the “Rats with gastric ulcers” value ([3]; 922 μmol/Kg) was 9/10. The TD50 at 5 h [4] was 413 µmol/kg, the ED40 [5, 7] was 147 µmol/kg and the “% inhibition … 1 h” value ([5]; oral, 30 μmol/kg) was 17%. For the same compound, the “% inhibition … 2 h” value ([5]; oral, 30 μmol/kg) was 18%, the “% inhibition … 3 h” value ([5]; oral, 30 μmol/kg) was 11% and the “% inhibition … 4 h” value ([5]; oral, 30 μmol/kg) was 15%. The “% inhibition … 6 h” value ([5]; oral, 30 μmol/kg) was 4%, the “% inhibition vs controls, AUC (paw edema)” value ([5]; oral, 30 μmol/kg) was 12.3% and the “% inhibition … 1 h” value ([5]; oral, 91 μmol/kg) was 38%. The “% inhibition … 2 h” value ([5]; oral, 91 μmol/kg) was 51%, the “% inhibition … 3 h” value ([5]; oral, 91 μmol/kg) was 30% and the “% inhibition … 4 h” value ([5]; oral, 91 μmol/kg) was 27%. For the same compound, the “% inhibition … 6 h” value ([5]; oral, 91 μmol/kg) was 9%, the “% inhibition vs controls, AUC (paw edema)” value ([5]; oral, 91 μmol/kg) was 28.4% and the “% inhibition … 1 h” value ([5]; oral, 274 μmol/kg) was 33%. The “% inhibition … 2 h” value ([5]; oral, 274 μmol/kg) was 55%, the “% inhibition … 3 h” value ([5]; oral, 274 μmol/kg) was 58% and the “% inhibition … 4 h” value ([5]; oral, 274 μmol/kg) was 57%. For the same compound, the “% inhibition … 6 h” value ([5]; oral, 274 μmol/kg) was 44%, the “% inhibition vs controls, AUC (paw edema)” value ([5]; oral, 274 μmol/kg) was 52.9% and the ED40 [5, 8] was 147 µmol/kg. For the same compound, the ED50 [6] was 58.9 µmol/kg, the “% inhibition vs controls (writhings)” value ([6]; 18.3 μmol/Kg) was 26.1% and the “No. of writhings (X ± SE)” value ([6]; 18.3 μmol/Kg) was 27.2 ± 4.1. The “% inhibition vs controls (writhings)” value ([6]; 55 μmol/Kg) was 36.4%, the “No. of writhings (X ± SE)” value ([6]; 55 μmol/Kg) was 23.4 ± 4.6 and the “% inhibition vs controls (writhings)” value ([6]; 164 μmol/Kg) was 82.1%. For the same compound, the “No. of writhings (X ± SE)” value ([6]; 164 μmol/Kg) was 6.6 ± 2.9.
